Data taken from ChEMBL document CHEMBL1201862, “PubChem BioAssay data set” (2004).
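All cell lines were grown in 96-well plates and treated with compound for 48 hours. GI50: concentration for 50% inhibition of growth.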 Activity calls are given as the source filed them. Cut-off read from the data, not from the text of the source: active = GI50 up to about 1.1 µM and inactive = higher.

Tests used:
Assay in all cases: NCI tumour cell line growth inhibition, 48 h
[1] = system: A498
[2] = system: ACHN
[3] = system: DU-145
[4] = system: HCC 2998
[5] = system: HOP-62
[6] = system: Hs-578T
[7] = system: LOX IMVI
[8] = system: NCI-H23
[9] = system: NCI/ADR-RES
[10] = system: OVCAR-5
[11] = system: OVCAR-8
[12] = system: PC-3
[13] = system: RXF 393
[14] = system: SF-268
[15] = system: SF-539
[16] = system: SK-MEL-2
[17] = system: SK-MEL-5
[18] = system: SW-620
[19] = system: UACC-62

Row | Compound | GI50 [1] | GI50 [2] | GI50 [3] | GI50 [4] | GI50 [5] | GI50 [6] | GI50 [7] | GI50 [8] | GI50 [9] | GI50 [10] | GI50 [11] | GI50 [12] | GI50 [13] | GI50 [14] | GI50 [15] | GI50 [16] | GI50 [17] | GI50 [18] | GI50 [19]
1 | CN(C)c1ccc2c(c1)oc(=O)c1ccccc12 | 15.8 µM (inactive) | 18.5 µM (inactive) | 10.7 µM (inactive) | 14.9 µM (inactive) | 29.2 µM (inactive) | 17.5 µM (inactive) | 6.14 µM (inactive) | 8.05 µM (inactive) | 14.1 µM (inactive) | 15.5 µM (inactive) | 11.1 µM (inactive) | 15.7 µM (inactive) | 5.4 µM (inactive) | 10.4 µM (inactive) | 14 µM (inactive) | 6.24 µM (inactive) | 10.7 µM (inactive) | 11.4 µM (inactive) | 13.6 µM (inactive)
2 | C=C[C@@]1(C)CC2(C=C(CO)C(O)O2)Oc2c1c(=O)oc1cccc(C)c21 (some centres undefined) | 24.2 µM (inactive) | 7.78 µM (inactive) | 13.9 µM (inactive) | 20.9 µM (inactive) | 17.5 µM (inactive) | 10.6 µM (inactive) | 3.61 µM (inactive) | 7.45 µM (inactive) | 2.61 µM (inactive) | 17.6 µM (inactive) | 5.28 µM (inactive) | 15.6 µM (inactive) | 2.26 µM (inactive) | 3.25 µM (inactive) | 5.53 µM (inactive) | 4.1 µM (inactive) | 12.7 µM (inactive) | 1.55 µM (inactive) | 10.2 µM (inactive)
3 | Cc1cc2nc(C#N)c(N3CCN(c4ccc([N+](=O)[O-])cc4)CC3)nc2cc1C | > 75.2 µM (inactive) | > 71.3 µM (inactive) | > 100 µM (inactive) | > 100 µM (inactive) | 40.6 µM (inactive) | 29.1 µM (inactive) | > 100 µM (inactive) | > 64.9 µM (inactive) | > 79.1 µM (inactive) | > 100 µM (inactive) | > 56.2 µM (inactive) | > 100 µM (inactive) | > 72.9 µM (inactive) | > 57.7 µM (inactive) | 26.1 µM (inactive) | > 100 µM (inactive) | > 100 µM (inactive) | > 100 µM (inactive) | > 79.1 µM (inactive)
4 | O=C1N=C(c2ccccc2)O/C1=C\c1ccccc1 | > 100 µM (inactive) | > 100 µM (inactive) | > 100 µM (inactive) | > 100 µM (inactive) | > 100 µM (inactive) | > 100 µM (inactive) | > 100 µM (inactive) | > 100 µM (inactive) | > 100 µM (inactive) | > 100 µM (inactive) | > 100 µM (inactive) | > 100 µM (inactive) | > 100 µM (inactive) | > 100 µM (inactive) | > 100 µM (inactive) | > 100 µM (inactive) | > 100 µM (inactive) | > 100 µM (inactive) | > 100 µM (inactive)
5 | C#CC1(O)C(COP(=O)(O)OCC2OC(n3ccc(NCCCCCCCCCCCCCCCCCC)nc3=O)C(O)C2O)OC(n2ccc(N)nc2=O)C1O (centres undefined) | 3.6 µM (inactive) | 0.175 µM (active) | 0.279 µM (active) | 0.703 µM (active) | 4.04 µM (inactive) | 2.12 µM (inactive) | 0.048 µM (active) | 3.73 µM (inactive) | 0.556 µM (active) | 5.36 µM (inactive) | 1.07 µM (active) | 1.8 µM (inactive) | 4.15 µM (inactive) | 1.34 µM (inactive) | 1.16 µM (inactive) | 0.67 µM (active) | 1.23 µM (inactive) | 0.228 µM (active) | 0.614 µM (active)
6 | c1ccc2c(c1)nc1n2CSCC1 | > 100 µM (inactive) | > 100 µM (inactive) | > 100 µM (inactive) | > 100 µM (inactive) | > 100 µM (inactive) | > 100 µM (inactive) | > 100 µM (inactive) | > 100 µM (inactive) | > 100 µM (inactive) | > 100 µM (inactive) | > 100 µM (inactive) | > 100 µM (inactive) | > 100 µM (inactive) | > 100 µM (inactive) | > 100 µM (inactive) | > 100 µM (inactive) | > 100 µM (inactive) | > 100 µM (inactive) | > 100 µM (inactive)
7 | O=C1O/C(=C\c2ccc(O)cc2)C(c2ccc(O)c(Cl)c2)=C1Cl | 33.6 µM (inactive) | 57.7 µM (inactive) | > 100 µM (inactive) | 38.2 µM (inactive) | 35.4 µM (inactive) | > 100 µM (inactive) | 50.6 µM (inactive) | 33.7 µM (inactive) | 36.2 µM (inactive) | > 100 µM (inactive) | 49.5 µM (inactive) | > 100 µM (inactive) | 30.9 µM (inactive) | 29.2 µM (inactive) | 91.8 µM (inactive) | 31.2 µM (inactive) | 18.5 µM (inactive) | 41.7 µM (inactive) | 32.1 µM (inactive)
8 | CCCc1nnc2sc(COc3ccc(OCc4nn5c(CCC)nnc5s4)c(Cl)c3)nn12 | 23.6 µM (inactive) | 20.9 µM (inactive) | 24.8 µM (inactive) | 23.8 µM (inactive) | 47.8 µM (inactive) | 47 µM (inactive) | 33.7 µM (inactive) | 20.2 µM (inactive) | 30.5 µM (inactive) | 50.4 µM (inactive) | 31 µM (inactive) | 44.2 µM (inactive) | 27 µM (inactive) | 23 µM (inactive) | 12.1 µM (inactive) | 42.1 µM (inactive) | 7.35 µM (inactive) | 40.3 µM (inactive) | 13.7 µM (inactive)
9 | C[C@H]1ON2CCC[C@@H]2[C@@H]1C(=O)N1C2CC3CCC2(CS1(=O)=O)C3(C)C (some centres undefined) | > 100 µM (inactive) | > 100 µM (inactive) | > 100 µM (inactive) | > 100 µM (inactive) | > 100 µM (inactive) | > 100 µM (inactive) | > 100 µM (inactive) | > 100 µM (inactive) | > 100 µM (inactive) | > 100 µM (inactive) | > 100 µM (inactive) | > 100 µM (inactive) | > 100 µM (inactive) | > 100 µM (inactive) | > 100 µM (inactive) | > 100 µM (inactive) | > 100 µM (inactive) | > 100 µM (inactive) | > 100 µM (inactive)
10 | O=C1C=C/C(=N/c2cccc3c(/N=C4/C=CC(=O)O4)cccc23)O1 | > 100 µM (inactive) | 29 µM (inactive) | > 100 µM (inactive) | > 100 µM (inactive) | > 100 µM (inactive) | > 100 µM (inactive) | 27.8 µM (inactive) | 50.4 µM (inactive) | 95.7 µM (inactive) | 54.8 µM (inactive) | 20 µM (inactive) | 48 µM (inactive) | 20.7 µM (inactive) | 52.6 µM (inactive) | 19.1 µM (inactive) | > 100 µM (inactive) | > 100 µM (inactive) | 16.4 µM (inactive) | 34.4 µM (inactive)
11 | CCCc1cn2c(/C=N/N=C(N)N)c(-c3c(OC)ccc(OC)c3[N+](=O)[O-])nc2s1 | 21.2 µM (inactive) | 18 µM (inactive) | 16 µM (inactive) | 2.57 µM (inactive) | 12.6 µM (inactive) | 13.1 µM (inactive) | 3.02 µM (inactive) | 10.9 µM (inactive) | 19.8 µM (inactive) | 15.6 µM (inactive) | 14.6 µM (inactive) | 9.59 µM (inactive) | 9.55 µM (inactive) | 11.4 µM (inactive) | 16.9 µM (inactive) | 16.7 µM (inactive) | 13.3 µM (inactive) | 7.78 µM (inactive) | 8.24 µM (inactive)
